In patent publication US20240182420A1, “MICROBIOCIDAL ISONICOTINIC AMIDE DERIVATIVES” (SYNGENTA CROP PROTECTION AG, priority 2021, published 2024) one finds inhibition of growth and pest or weed control data, which are given here for 20 compounds.

Some results are limits rather than exact numbers.

The test system of assay [1] is Glomerella lagenarium syn Colletotrichum lagenarium. In words: Glomerella lagenarium syn. Colletotrichum lagenarium (anthracnose), liquid culture growth inhibition. The class given is cell-based. The note with it: Colletotrichum orbiculare, PDB nutrient broth, 24° C., 72 hrs, 620 nm, vs untreated control. As to the method:
(§1) Conidia of the fungus from cryogenic storage were directly mixed into nutrient broth (PDB potato dextrose broth). A DMSO solution of the test compounds was placed into a microtiter plate (96-well format) and the nutrient broth containing the fungal spores was added to it. The test plates were incubated at 24° C. and the inhibition of growth was determined photometrically after 72 hrs at 620 nm.

Assay [2] relates to Botryotinia fuckeliana syn. Botrytis cinerea. The assay is described as follows: Botryotinia fuckeliana syn. Botrytis cinerea (gray mould), liquid culture growth inhibition. The class given is cell-based. The note with it: PDB nutrient broth, 24° C., 72 hrs, photometric, vs untreated control. The protocol: Conidia of the fungus from cryogenic storage were directly mixed into nutrient broth (PDB potato dextrose broth). A DMSO solution of the test compounds was placed into a microtiter plate (96-well format) and the nutrient broth containing the fungal spores was added to it. The test plates were incubated at 24° C. and the inhibition of growth was determined photometrically after 72 hrs.

The next assay deals with Sclerotinia sclerotiorum. The assay is described as follows: Sclerotinia sclerotiorum (cottony rot, white mold), liquid culture growth inhibition. The class given is cell-based. Particulars: PDB nutrient broth, 24° C., 72 hrs, 620 nm, vs untreated control. As to the method: Mycelial fragments of the fungus prepared from a fresh liquid culture were directly mixed into nutrient broth (PDB potato dextrose broth). A DMSO solution of the test compounds was placed into a microtiter plate (96-well format) and the nutrient broth containing the fungal spores was added to it. The test plates were incubated at 24° C. and the inhibition of growth was determined photometrically after 72 hrs at 620 nm.

Assay [3] relates to Botryotinia fuckeliana syn. Botrytis cinerea. In words: Botryotinia fuckeliana syn. Botrytis cinerea (grey mold on tomato), tomato plants. The format is in vivo. Particulars: tomato plants cv. Roter Gnom, inoculated two days after application, leaf area covered by disease 5-6 days after application. As to the method:
4-week old tomato plants cv. Roter Gnom are treated sprayed in a spray chamber with the formulated test compound diluted in water. The test plants are inoculated by spraying them with a spore suspension two days after application. The inoculated test plants are incubated at 20° C. and 95% rh in a greenhouse and the percentage leaf area covered by disease is assessed when an appropriate level of disease appears on untreated check plants (5-6 days after application).

The test system of assay [4] is Monographella nivalis syn. Microdochium nivale, Fusarium nivale. The assay is described as follows: Monographella nivalis syn. Microdochium nivale (snow mould, foot rot), liquid culture growth inhibition. The class given is cell-based. The note with it: PDB nutrient broth, 24° C., 72 hrs, 620 nm, vs untreated control. The protocol: as §1
For assay [5], the system named is Phaeosphaeria nodorum syn. Septoria nodorum. The assay is described as follows: Phaeosphaeria nodorum syn. Septoria nodorum (glume blotch of wheat), wheat leaf segments, preventive. The format is in vivo. Particulars: Parastagonospora nodorum, foliar, 96 h, assessed 4 dpi, vs untreated control. As to the method: Wheat leaf segments are placed on agar in multiwell plates (24-well format) and sprayed with test solutions. After drying, the leaf disks are inoculated with a spore suspension of the fungus. After appropriate incubation the activity of a compound is assessed 4 dpi (days after inoculation) as preventive fungicidal activity.
The following compounds from Table T1 gave at least 80% control of Phaeosphaeria nodorum at 200 ppm when compared to untreated control under the same conditions, which sowed extensive disease development: • 1.1, 1.3, 1.7, 1.14, 1.39, 1.41, 1.86, 1.87, 1.92, 1.94, 1.95.

The subject of another assay is Alternaria solani. In words: Alternaria solani (early blight of tomato), tomato leaf disks, preventive. The format is in vivo. The note with it: foliar, 96 h, assessed 4 dpi, vs untreated control. The protocol: Tomato leaf disks are placed on water agar in multiwell plates (24-well format) and sprayed with test solutions. After drying, the leaf disks are inoculated with a spore suspension of the fungus. After appropriate incubation the activity of a compound is assessed 4 dpi (days post inoculation) as preventive fungicidal activity.

Consider `Cc1cccc(Oc2cnc(C)cc2C(=O)NCCc2ccc(Cl)cc2Cl)c1` [Compound 1.2, N-[2-(2,4-dichlorophenyl)ethyl]-2-methyl-5-(3-methylphenoxy) pyridine-4-carboxamide], for which the inhibition of growth at 20 ppm (in assay [1]; in assay [2]; with Sclerotinia sclerotiorum) was ≥ 80% throughout.
With `O=C(NCC(F)c1ccc(Cl)cc1Cl)c1cc(Br)ncc1Oc1cccc(C2CC2)c1` (centres unmarked) [Compound 1.5, 2-bromo-5-(3-cyclopropyl-phenoxy)-N-[2-(2,4-dichlorophenyl)-2-fluoro-ethyl]pyridine-4-carboxamide], the inhibition of growth at 20 ppm (in assay [1]; in assay [2]; in the assay on Sclerotinia sclerotiorum) was ≥ 80% throughout. In addition, in assay [3], the pest or weed control at 200 ppm is ≥ 50%.
Consider `O=C(NCC(F)c1ccc(Cl)cc1Cl)c1c(Br)cncc1Oc1cccc(C2CC2)c1` (centres unmarked) [Compound 1.8, 3-bromo-5-(3-cyclopropyl-phenoxy)-N-[2-(2,4-dichlorophenyl)-2-fluoro-ethyl]pyridine-4-carboxamide], for which the inhibition of growth at 20 ppm (in assay [1]; in assay [2]; in the assay on Sclerotinia sclerotiorum) was ≥ 80% each time. Further, the pest or weed control at 200 ppm in assay [3] is ≥ 50%.
Turning to `Cc1cc(C(=O)NCCc2ccc(Cl)cc2Cl)c(Oc2cccc(C3CC3)c2)cn1` [Compound 1.13, 5-(3-cyclopropyl-phenoxy)-N-[2-(2,4-dichlorophenyl)ethyl]-2-methyl-pyridine-4-carboxamide], the inhibition of growth at 20 ppm (in assay [1]; in assay [4]; in assay [2]; in the assay with Sclerotinia sclerotiorum) was ≥ 80% throughout. Moreover, the pest or weed control at 200 ppm in assay [3] was ≥ 50%.
`Cc1ccccc1CCNC(=O)c1cc(Cl)ncc1Oc1cccc(C2CC2)c1` [Compound 1.36, 2-chloro-5-(3-cyclopropyl-phenoxy)-N-[2-(o-tolyl)ethyl]pyridine-4-carboxamide]: in assay [4], the inhibition of growth at 20 ppm was ≥ 80%.
Same read-out and setting: the value for `COc1ccc(CCNC(=O)c2cc(Cl)ncc2Oc2ccccc2)cc1OC` [Compound 1.44, 2-chloro-N-[2-(3,4-dimethoxyphenyl)ethyl]-5-phenoxy-pyridine-4-carboxamide] was ≥ 80%.
Regarding `Cc1cccc(Oc2cnc(Cl)cc2C(=O)NCCc2cccc(Cl)c2)c1` [Compound 1.46, 2-chloro-N-[2-(3-chlorophenyl)ethyl]-5-(3-methylphenoxy) pyridine-4-carboxamide], the inhibition of growth at 20 ppm in assay [1] and in assay [4] was ≥ 80% each time.
Regarding `O=C(NC1(Cc2ccccc2)CC1)c1cc(Cl)ncc1Oc1cccc(C2CC2)c1` [Compound 1.49, N-(1-benzylcyclopropyl)-2-chloro-5-(3-cyclopropylphenoxy) pyridine-4-carboxamide], the inhibition of growth at 20 ppm in assay [4] was ≥ 80%.
On the same count and under the same terms, the value for `Cc1cc(C)cc(CCNC(=O)c2cc(Cl)ncc2Oc2cccc(C3CC3)c2)c1` [Compound 1.50, 2-chloro-5-(3-cyclopropylphenoxy)-N-[2-(3,5-dimethylphenyl)ethyl]pyridine-4-carboxamide] was ≥ 80%.
As for `Cc1ccc(C(F)CNC(=O)c2cc(C)ncc2Oc2cccc(C3CC3)c2)c(Cl)c1` (centres unmarked) [Compound 1.60, N-[2-(2-chloro-4-methyl-phenyl)-2-fluoro-ethyl]-5-(3-cyclopropyl-phenoxy)-2-methyl-pyridine-4-carboxamide], the inhibition of growth at 20 ppm in assay [1], in assay [4] and in assay [2] was ≥ 80% in each case. In assay [3], the pest or weed control at 200 ppm is ≥ 50%.
As to `N#Cc1ccc(Oc2cnc(Cl)cc2C(=O)NCC(F)c2ccc(Cl)cc2Cl)cc1` (centres unmarked) [Compound 1.63, 2-chloro-5-(4-cyanophenoxy)-N-[2-(2,4-dichlorophenyl)-2-fluoro-ethyl]pyridine-4-carboxamide], the inhibition of growth at 20 ppm in assay [1] and in assay [4] was ≥ 80% each time.
For the compound `O=C(NCC(F)c1ccc(Cl)cc1Cl)c1cc(Cl)ncc1Oc1cccc(C2CC2)c1F` (centres unmarked) [Compound 1.70, 2-chloro-5-(3-cyclopropyl-2-fluoro-phenoxy)-N-[2-(2,4-dichlorophenyl)-2-fluoro-ethyl]pyridine-4-carboxamide], the pest or weed control at 200 ppm in assay [3] is ≥ 50%. Also, the inhibition of growth at 20 ppm (in assay [4]; in assay [2]; in the assay with Sclerotinia sclerotiorum) was ≥ 80% in each case.
Consider `Cc1ccc(C(F)CNC(=O)c2cc(Cl)ncc2Oc2cccc(C3CC3)c2)c(C)c1` (centres unmarked) [Compound 1.78, 2-chloro-5-(3-cyclopropyl-phenoxy)-N-[2-(2,4-dimethylphenyl)-2-fluoro-ethyl]pyridine-4-carboxamide], for which the inhibition of growth at 20 ppm in assay [1], in assay [4] and in assay [2] was ≥ 80% each time.
On to `CCc1cncc(Oc2cccc(C3CC3)c2)c1C(=O)NCC(F)c1ccc(Cl)cc1Cl` (centres unmarked) [Compound 1.79, 3-(3-cyclopropyl-phenoxy)-N-[2-(2,4-dichlorophenyl)-2-fluoro-ethyl]-5-ethyl-pyridine-4-carboxamide], for which the inhibition of growth at 20 ppm (in assay [1]; in assay [4]; in assay [2]; in the assay on Sclerotinia sclerotiorum) was ≥ 80% in each case. Also, the pest or weed control at 200 ppm in assay [3] is ≥ 50%.
As to `CCc1cc(C(=O)NCC(F)c2ccc(Cl)cc2Cl)c(Oc2cccc(C3CC3)c2)cn1` (centres unmarked) [Compound 1.81, 5-(3-cyclopropyl-phenoxy)-N-[2-(2,4-dichlorophenyl)-2-fluoro-ethyl]-2-ethyl-pyridine-4-carboxamide], the inhibition of growth at 20 ppm (in assay [1]; in assay [4]; in assay [2]; in the assay on Sclerotinia sclerotiorum) was ≥ 80% each time. In addition, the pest or weed control at 200 ppm in assay [3] is ≥ 50%.
Consider `O=C(NCC(F)c1ccc(Cl)cc1Cl)c1c(Oc2cccc(C3CC3)c2)cncc1Oc1cccc(C2CC2)c1` (centres unmarked) [Compound 1.84, 3,5-bis(3-cyclopropyl-phenoxy)-N-[2-(2,4-dichlorophenyl)-2-fluoro-ethyl]pyridine-4-carboxamide], for which the inhibition of growth at 20 ppm in assay [1], in assay [4] and in assay [2] was ≥ 80% each time. Besides, in assay [3], the pest or weed control at 200 ppm was ≥ 50%.
As to `C#Cc1cc(C(=O)NCC(F)c2ccc(Cl)cc2Cl)c(Oc2cccc(C3CC3)c2)cn1` (centres unmarked) [Compound 1.86, 5-(3-cyclopropyl-phenoxy)-N-[2-(2,4-dichlorophenyl)-2-fluoro-ethyl]-2-ethynyl-pyridine-4-carboxamide], the pest or weed control at 200 ppm in assay [5] is ≥ 80%. In addition, the inhibition of growth at 20 ppm in assay [1], in assay [4] and in assay [2] was ≥ 80% each time.
On to `C#CC(C)(C)Oc1cncc(Oc2cccc(C3CC3)c2)c1C(=O)NCC(F)c1ccc(Cl)cc1Cl` (centres unmarked) [Compound 1.92, 3-(3-cyclopropyl-phenoxy)-N-[2-(2,4-dichlorophenyl)-2-fluoro-ethyl]-5-(1,1-dimethylprop-2-ynoxy)pyridine-4-carboxamide], for which, in assay [5], the pest or weed control at 200 ppm is ≥ 80%. For the same compound, the inhibition of growth at 20 ppm (in assay [1]; in assay [4]; in assay [2]; in the assay on Sclerotinia sclerotiorum) was ≥ 80% each time.
Take `O=C(NCC(F)c1ccc(Cl)cc1Cl)c1c(O)cncc1Oc1cccc(C2CC2)c1` (centres unmarked) [Compound 1.96, 3-(3-cyclopropyl-phenoxy)-N-[2-(2,4-dichlorophenyl)-2-fluoro-ethyl]-5-hydroxy-pyridine-4-carboxamide]: the inhibition of growth at 20 ppm (in assay [1]; in assay [4]; in assay [2]; with Sclerotinia sclerotiorum) was ≥ 80% in each case.
On to `COc1cc(C(=O)NCC(F)c2ccc(Cl)cc2Cl)c(Oc2cccc(C3CC3)c2)cn1` (centres unmarked) [Compound 1.98, 5-(3-cyclopropyl-phenoxy)-N-[2-(2,4-dichlorophenyl)-2-fluoro-ethyl]-2-methoxy-pyridine-4-carboxamide], for which the inhibition of growth at 20 ppm in assay [1] and in assay [2] was ≥ 80% throughout. The pest or weed control at 200 ppm with Alternaria solani is ≥ 80%.

For orientation: inhibition of growth means the percentage by which the read-out fell short of the control. Read a low inhibition of growth as a response near the control. One may read the pest or weed control as how far the test organism was held down. Read a high pest or weed control as strong suppression.
